Ki data for one compound are collected here from ChEMBL document CHEMBL1152673, “Crystal structure of 3-isopropylmalate dehydrogenase in complex with NAD(+) and a designed inhibitor” (Bioorg Med Chem, 2009).

The target of this test is 3-isopropylmalate dehydrogenase (Thermus thermophilus, UniProt Q5SIY4). Nature of the test: Inhibition of Thermus thermophilus HB8 IPMDH assessed as formation of NADH by Lineweaver-Burke plot analysis.
3-isopropylmalate dehydrogenase, sequence (Q5SIY4 whole entry): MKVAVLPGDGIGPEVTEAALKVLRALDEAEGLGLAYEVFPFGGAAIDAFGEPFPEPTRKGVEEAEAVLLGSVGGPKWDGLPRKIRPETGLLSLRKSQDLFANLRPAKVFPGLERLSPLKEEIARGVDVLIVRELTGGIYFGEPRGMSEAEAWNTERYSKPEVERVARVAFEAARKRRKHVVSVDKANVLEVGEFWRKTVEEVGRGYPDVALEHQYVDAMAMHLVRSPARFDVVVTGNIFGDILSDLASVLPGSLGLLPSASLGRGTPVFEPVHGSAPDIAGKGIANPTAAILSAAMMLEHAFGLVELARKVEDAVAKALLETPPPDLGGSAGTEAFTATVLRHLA

As a reminder, the Ki is the dissociation constant of the complex between target and ligand, obtained from inhibition or displacement. For the compound `CS[C@H](C(=O)O)[C@@H](O)C(=O)O`, the inhibition constant Ki turned out to be 62 nM.
